Values quoted from earlier work as cited in patent publication EP2502493B1, “Novel alpha-galactosidases” (Velico Medical, Inc., priority 2005, dated 2007).

System: α-galactosidase from the marine bacterium Pseudoalteromonas spp. (KMM 701)
Conditions: isolated enzyme preparation, purified to 9.8U/mg; monosaccharide substrate pNP-Gal; read-out: apparent Km for pNP-Gal

O=[N+]([O-])c1ccc(O[C@H]2O[C@H](CO)[C@H](O)[C@H](O)[C@H]2O)cc1 [pNP-Gal, p-nitrophenyl α-D-Gal]
Km: 290 µM
